Activity calls are given as the source filed them. The rule behind the calls is not given here.

What is called IC50 is the point on the concentration scale where inhibition reaches its midpoint. Read a high IC50 as weaker potency in that assay.

In test [1] the test system is SW-620. The test is described as follows: Induction of apoptosis in human SW620 cells assessed as change in nuclear morphology at 2 times IC50 after 24 hrs by fluorescent microscopy relative to control. Format: functional.
For test [2], the system named is HCT-116. As to the kind of experiment: (§1) Cytotoxicity against human HCT116 cells assessed as cell death at 2 times IC50 after 72 hrs by LDH release assay relative to control. Type of test: functional.
Test [3] concerns SW-620. As to the kind of experiment: Induction of cell death in human SW620 cells at 2 times IC50 after 72 hrs by Guava ViaCount assay relative to control. Format: functional.
Test [4] has as its system HCT-116. As to the kind of experiment: (§2) Induction of cell death in human HCT116 cells at IC50 after 72 hrs by Guava ViaCount assay relative to control. Format: functional.
The subject of test [5] is SW-620. The test is described as follows: Induction of cell death in human SW620 cells at IC50 after 72 hrs by Guava ViaCount assay relative to control. Format: functional.
The test system of test [6] is HCT-116. As to the kind of experiment: Induction of apoptosis in human HCT116 cells assessed as change in nuclear morphology at 2 times IC50 after 24 hrs by fluorescent microscopy relative to control. Type of test: functional.
Test [7] has as its system HCT-116. The test is described as follows: (§3) Induction of cell death in human HCT116 cells at 2 times IC50 after 72 hrs by Guava ViaCount assay relative to control. Type of test: functional.
Test [8] has as its system SW-620. The test is described as follows: Cytotoxicity against human SW620 cells assessed as cell death at 2 times IC50 after 72 hrs by LDH release assay relative to control. Type of test: functional. (LDH in the medium is a marker of cell lysis.)
In test [9] the test system is SW-620. As to the kind of experiment: Cytotoxicity against human SW620 cells after 72 hrs by MTS assay. Type of test: functional, cell-based. To be noted: SW-620, 72 h.
The test system of test [10] is HCT-116. The test is described as follows: (§4) Cytotoxicity against human HCT116 cells assessed as cell death at IC50 after 72 hrs by LDH release assay relative to control. Format: functional.
Test [11] deals with SW-620. As to the kind of experiment: Cytotoxicity against human SW620 cells assessed as cell death at IC50 after 72 hrs by LDH release assay relative to control. Type of test: functional.
Test [12] can be described thus: Cytotoxicity against human HCT116 cells after 72 hrs by MTS assay. To be noted: HCT-116, 72 h. Format: functional, cell-based. In general terms: Tetrazolium assays rely on reduction of a dye to a coloured formazan, in cell work by metabolically active cells.
For test [13], the system named is SW-620. The test is described as follows: Induction of apoptosis in human SW620 cells assessed as increase in p53 expression at 1 to 2 times IC50 after 72 hrs by immunoblot analysis relative to control. Type of test: functional, cell-based. On the technique in general: Immunoblotting shows a protein as a band on a membrane.
Test [14] in a line: as §1. Format: functional, HCT-116.
Test [15] deals with HCT-116. The test is described as follows: Induction of apoptosis in human HCT116 cells assessed as reduction in Bcl-2 expression at 1 to 2 times IC50 after 72 hrs by immunoblot analysis relative to control. Format: functional, cell-based.
Test [16] can be described thus: as §2. Type of test: functional, HCT-116.
Test [17] deals with HCT-116. As to the kind of experiment: Induction of apoptosis in human HCT116 cells assessed as increase in PARP cleavage at 1 to 2 times IC50 after 72 hrs by immunoblot analysis relative to control. Format: functional, cell-based.
The test system of test [18] is HCT-116. The test is described as follows: Induction of apoptosis in human HCT116 cells assessed as reduction in ERK5 expression at 1 to 2 times IC50 after 72 hrs by immunoblot analysis relative to control. Format: functional, cell-based.
Test [19] deals with HCT-116. The test is described as follows: Induction of apoptosis in human HCT116 cells assessed as reduction in Akt expression at 1 to 2 times IC50 after 72 hrs by immunoblot analysis relative to control. Format: functional, cell-based.
Test [20] deals with HCT-116. The test is described as follows: Induction of apoptosis in human HCT116 cells assessed as reduction in Bcl-XL expression at 1 to 2 times IC50 after 72 hrs by immunoblot analysis relative to control. Type of test: functional, cell-based.
The nature of test [21]: as §3. Type of test: functional, HCT-116.
Test [22] concerns SW-620. The test is described as follows: Induction of apoptosis in human SW620 cells assessed as reduction in Bcl-2 expression at 1 to 2 times IC50 after 72 hrs by immunoblot analysis relative to control. Type of test: functional, cell-based.
In test [23] the test system is SW-620. The test is described as follows: Induction of apoptosis in human SW620 cells assessed as increase in PARP cleavage at 1 to 2 times IC50 after 72 hrs by immunoblot analysis relative to control. Format: functional, cell-based.
Test [24] concerns HCT-116. As to the kind of experiment: Induction of apoptosis in human HCT116 cells assessed as increase in p53 expression at 1 to 2 times IC50 after 72 hrs by immunoblot analysis relative to control. Format: functional, cell-based.
A short description of test [25]: as §4. Format: functional, HCT-116.
Test [26] concerns SW-620. As to the kind of experiment: Induction of apoptosis in human SW620 cells assessed as reduction in Akt expression at 1 to 2 times IC50 after 72 hrs by immunoblot analysis relative to control. Format: functional, cell-based.
Test [27] has as its system SW-620. As to the kind of experiment: Induction of apoptosis in human SW620 cells assessed as reduction in Bcl-XL expression at 1 to 2 times IC50 after 72 hrs by immunoblot analysis relative to control. Type of test: functional, cell-based.
Test [28] concerns HCT-116. As to the kind of experiment: Induction of apoptosis in human HCT116 cells assessed as change in nuclear morphology at IC50 after 24 hrs by fluorescent microscopy relative to control. Format: functional.
Test [29] deals with SW-620. As to the kind of experiment: Induction of apoptosis in human SW620 cells assessed as change in nuclear morphology at IC50 after 24 hrs by fluorescent microscopy relative to control. Type of test: functional.
Test [30] deals with HCT-116. As to the kind of experiment: Induction of apoptosis in human HCT116 cells assessed as reduction in XIAP expression at 1 to 2 times IC50 after 72 hrs by immunoblot analysis relative to control. Type of test: functional, cell-based.
Test [31] has as its system SW-620. As to the kind of experiment: Induction of apoptosis in human SW620 cells assessed as reduction in XIAP expression at 1 to 2 times IC50 after 72 hrs by immunoblot analysis relative to control. Type of test: functional, cell-based.
Test [32] relates to SW-620. As to the kind of experiment: Induction of apoptosis in human SW620 cells assessed as reduction in ERK5 expression at 1 to 2 times IC50 after 72 hrs by immunoblot analysis relative to control. Format: functional, cell-based.

Regarding `O=c1[nH]cc(F)c(=O)[nH]1` [FLUOROURACIL], the figures for the Activity with SW-620 [1] and in the test with HCT-116 [6] were 13% and below 10%, respectively. For the same compound, the outcome in the test with HCT-116 [2], with SW-620 [3], in the test on HCT-116 [4], in the test with SW-620 [5], in the test on HCT-116 [7] and with HCT-116 [10] was Active. For the same compound, the “fold change (FC)” value in the test with SW-620 [8] was 1.9; with SW-620 [11] it was 1.1. In addition, the IC50 in the test with SW-620 [9] was 5.3 µM; in test [12], 0.5 µM.
For the compound `COc1ccc2c(c1OC)[C@H](CC(C)=O)N(C)c1c-2ccc2cc3c(cc12)OCO3`, the result with SW-620 [13], in the test on HCT-116 [15], with HCT-116 [17], with HCT-116 [18], with HCT-116 [19] and in the test on HCT-116 [20] was Active. In addition, the outcome in the test on SW-620 [22], in the test with SW-620 [23], in the test on HCT-116 [24], in the test with SW-620 [26], with SW-620 [27] and in the test on HCT-116 [30] was Active. Also, the outcome in the test with SW-620 [31] and in the test with SW-620 [32] was Active. Moreover, the Activity worked out at 27% in the test on SW-620 [1]; 65% in the test on SW-620 [3]; 25% in test [16]; 34% in the test on SW-620 [5]; 22% with HCT-116 [6]; 65% in test [21]. For the same compound, the Activity is recorded as 19% with HCT-116 [28] and 22% with SW-620 [29]. The “fold change (FC)” value was 1.3 in [14], 1.1 in the test with SW-620 [8] and 1.2 in test [25]. Besides, the IC50 in the test with SW-620 [9] turned out to be 3.8 µM; in test [12], 2.4 µM.

Source of the values: ChEMBL document CHEMBL3352642, “6-Acetonyldihydrochelerythrine Is a Potent Inducer of Apoptosis in HCT116 and SW620 Colon Cancer Cells” (J Nat Prod, 2014).
